Source: the supplement of paper PMC10307832

Assays:
Assay in all cases: relative viability (nuclei count vs DMSO), 5 days (fraction); higher = more cells survive
EBC-1 = tested on: EBC-1
Procedure, shortened: (§1)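 Relative viability was taken as the ratio of nuclei in treated wells to nuclei in vehicle wells. Lung cancer cell lines in 1536-well plates received compounds by pin tool one day after seeding, either one drug alone or a fixed anchor-drug dose plus five library-drug doses (not always all listed) in √10 steps. Nuclei were counted on 4× images after 5 days of treatment, and values are medians of duplicate plates.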

NCI-H2087 = tested on: NCI-H2087
Procedure, shortened: as §1

A549 = tested on: A549
Procedure, shortened: as §1

HCC-78 = tested on: HCC-78
Procedure, shortened: as §1

Calu-6 = tested on: Calu-6
Procedure, shortened: as §1

NCI-H1703 = tested on: NCI-H1703
Procedure, shortened: as §1

HCC-44 = tested on: HCC-44
Procedure, shortened: as §1

NCI-H322M = tested on: NCI-H322M
Procedure, shortened: as §1

NCI-H1563 = tested on: NCI-H1563
Procedure, shortened: as §1

IA-LM = tested on: IA-LM
Procedure, shortened: as §1

NCI-H1299 = tested on: NCI-H1299
Procedure, shortened: as §1

NCI-H1648 = tested on: NCI-H1648
Procedure, shortened: as §1

## CN1CCN(CCOc2cc(OC3CCOCC3)c3c(Nc4c(Cl)ccc5c4OCO5)ncnc3c2)CC1 [Saracatinib] + C[C@]1(O)C[C@@H](c2nc(-c3ccc4ccc(-c5ccccc5)nc4c3)c3c(N)nccn32)C1 [Linsitinib] (partner 1 µM)
EBC-1; first compound 0.02 µM
  relative viability: 0.94
EBC-1; first compound 0.2 µM
  relative viability: 0.771
EBC-1; first compound 0.6325 µM
  relative viability: 1.07
EBC-1; first compound 2 µM
  relative viability: 0.982
NCI-H2087; first compound 0.02 µM
  relative viability: 1.11
NCI-H2087; first compound 0.2 µM
  relative viability: 0.947
NCI-H2087; first compound 0.6325 µM
  relative viability: 1.2
NCI-H2087; first compound 2 µM
  relative viability: 1.12
A549; first compound 0.02 µM
  relative viability: 0.564
A549; first compound 0.2 µM
  relative viability: 0.566
A549; first compound 0.6325 µM
  relative viability: 0.638
A549; first compound 2 µM
  relative viability: 0.357
HCC-78; first compound 0.02 µM
  relative viability: 0.52
HCC-78; first compound 0.2 µM
  relative viability: 0.505
HCC-78; first compound 0.6325 µM
  relative viability: 0.753
HCC-78; first compound 2 µM
  relative viability: 0.497
Calu-6; first compound 0.02 µM
  relative viability: 0.95
Calu-6; first compound 0.2 µM
  relative viability: 0.824
Calu-6; first compound 0.6325 µM
  relative viability: 0.906
Calu-6; first compound 2 µM
  relative viability: 0.68
NCI-H1703; first compound 0.02 µM
  relative viability: 1.02
NCI-H1703; first compound 0.2 µM
  relative viability: 0.738
NCI-H1703; first compound 0.6325 µM
  relative viability: 0.513
NCI-H1703; first compound 2 µM
  relative viability: 0.35
HCC-44; first compound 0.02 µM
  relative viability: 0.729
HCC-44; first compound 0.2 µM
  relative viability: 0.51
HCC-44; first compound 0.6325 µM
  relative viability: 0.823
HCC-44; first compound 2 µM
  relative viability: 0.717
NCI-H322M; first compound 0.02 µM
  relative viability: 0.999
NCI-H322M; first compound 0.2 µM
  relative viability: 0.962
NCI-H322M; first compound 0.6325 µM
  relative viability: 0.924
NCI-H322M; first compound 2 µM
  relative viability: 0.569
NCI-H1563; first compound 0.02 µM
  relative viability: 1.09
NCI-H1563; first compound 0.2 µM
  relative viability: 1.16
NCI-H1563; first compound 0.6325 µM
  relative viability: 1.05
NCI-H1563; first compound 2 µM
  relative viability: 0.891
IA-LM; first compound 0.02 µM
  relative viability: 0.682
IA-LM; first compound 0.2 µM
  relative viability: 0.838
IA-LM; first compound 0.6325 µM
  relative viability: 1.43
IA-LM; first compound 2 µM
  relative viability: 0.815
NCI-H1299; first compound 0.02 µM
  relative viability: 0.992
NCI-H1299; first compound 0.2 µM
  relative viability: 0.791
NCI-H1299; first compound 0.6325 µM
  relative viability: 0.979
NCI-H1299; first compound 2 µM
  relative viability: 0.655

## CN1CCN(CCOc2cc(OC3CCOCC3)c3c(Nc4c(Cl)ccc5c4OCO5)ncnc3c2)CC1 [Saracatinib] + Cc1nc(NC(=O)N2CCC[C@H]2C(N)=O)sc1-c1ccnc(C(C)(C)C(F)(F)F)c1 [Alpelisib] (partner 2 µM)
EBC-1; first compound 0.02 µM
  relative viability: 0.929
EBC-1; first compound 0.2 µM
  relative viability: 0.764
EBC-1; first compound 0.6325 µM
  relative viability: 0.898
EBC-1; first compound 2 µM
  relative viability: 0.906
NCI-H2087; first compound 0.02 µM
  relative viability: 1.13
NCI-H2087; first compound 0.2 µM
  relative viability: 0.934
NCI-H2087; first compound 0.6325 µM
  relative viability: 1.41
NCI-H2087; first compound 2 µM
  relative viability: 1.04
A549; first compound 0.02 µM
  relative viability: 0.799
A549; first compound 0.2 µM
  relative viability: 0.718
A549; first compound 0.6325 µM
  relative viability: 0.861
A549; first compound 2 µM
  relative viability: 0.5
HCC-78; first compound 0.02 µM
  relative viability: 0.29
HCC-78; first compound 0.2 µM
  relative viability: 0.328
HCC-78; first compound 0.6325 µM
  relative viability: 0.479
HCC-78; first compound 2 µM
  relative viability: 0.323
Calu-6; first compound 0.02 µM
  relative viability: 1.02
Calu-6; first compound 0.2 µM
  relative viability: 0.683
Calu-6; first compound 0.6325 µM
  relative viability: 0.721
Calu-6; first compound 2 µM
  relative viability: 0.76
NCI-H1703; first compound 0.02 µM
  relative viability: 0.321
NCI-H1703; first compound 0.2 µM
  relative viability: 0.243
NCI-H1703; first compound 0.6325 µM
  relative viability: 0.189
NCI-H1703; first compound 2 µM
  relative viability: 0.184
HCC-44; first compound 0.02 µM
  relative viability: 0.859
HCC-44; first compound 0.2 µM
  relative viability: 0.658
HCC-44; first compound 0.6325 µM
  relative viability: 0.874
HCC-44; first compound 2 µM
  relative viability: 0.862
NCI-H322M; first compound 0.02 µM
  relative viability: 0.761
NCI-H322M; first compound 0.2 µM
  relative viability: 0.876
NCI-H322M; first compound 0.6325 µM
  relative viability: 0.822
NCI-H322M; first compound 2 µM
  relative viability: 0.639
NCI-H1563; first compound 0.02 µM
  relative viability: 0.992
NCI-H1563; first compound 0.2 µM
  relative viability: 0.882
NCI-H1563; first compound 0.6325 µM
  relative viability: 0.725
NCI-H1563; first compound 2 µM
  relative viability: 0.693
IA-LM; first compound 0.02 µM
  relative viability: 0.93
IA-LM; first compound 0.6325 µM
  relative viability: 1.44
IA-LM; first compound 2 µM
  relative viability: 0.958
NCI-H1299; first compound 0.02 µM
  relative viability: 1.08
NCI-H1299; first compound 0.2 µM
  relative viability: 1.02
NCI-H1299; first compound 0.6325 µM
  relative viability: 1.14
NCI-H1299; first compound 2 µM
  relative viability: 1.1

## CN1CCN(CCOc2cc(OC3CCOCC3)c3c(Nc4c(Cl)ccc5c4OCO5)ncnc3c2)CC1 [Saracatinib] + Nc1nc2[nH]cc(CCc3ccc(C(=O)N[C@@H](CCC(=O)O)C(=O)O)cc3)c2c(=O)[nH]1 [Pemetrexed] (partner 0.2 µM)
NCI-H2087; first compound 0.02 µM
  relative viability: 0.63
NCI-H2087; first compound 0.2 µM
  relative viability: 0.722
NCI-H2087; first compound 0.6325 µM
  relative viability: 0.574
NCI-H2087; first compound 2 µM
  relative viability: 0.707
HCC-78; first compound 0.02 µM
  relative viability: 0.916
HCC-78; first compound 0.6325 µM
  relative viability: 0.925
HCC-78; first compound 2 µM
  relative viability: 0.841
NCI-H1648; first compound 0.02 µM
  relative viability: 0.721
NCI-H1648; first compound 0.2 µM
  relative viability: 0.766
NCI-H1648; first compound 0.6325 µM
  relative viability: 1.08
NCI-H1648; first compound 2 µM
  relative viability: 0.415
HCC-44; first compound 0.02 µM
  relative viability: 0.645
HCC-44; first compound 0.2 µM
  relative viability: 0.607
HCC-44; first compound 0.6325 µM
  relative viability: 0.618
HCC-44; first compound 2 µM
  relative viability: 0.667
NCI-H322M; first compound 0.02 µM
  relative viability: 0.574
NCI-H322M; first compound 0.2 µM
  relative viability: 0.55
NCI-H322M; first compound 0.6325 µM
  relative viability: 0.505
NCI-H322M; first compound 2 µM
  relative viability: 0.32
NCI-H1563; first compound 0.02 µM
  relative viability: 0.946
NCI-H1563; first compound 0.2 µM
  relative viability: 0.576
NCI-H1563; first compound 0.6325 µM
  relative viability: 0.742
NCI-H1563; first compound 2 µM
  relative viability: 0.592
